Measurements from PubChem BioAssay (NCI).
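Grown in 96-well plates, cells were treated for 48 hours with each compound at five concentrations. Insufficient inhibition: endpoint recorded as highest concentration tested. GI50 = concentration required for 50% inhibition of growth. The concentration for full growth arrest is given as TGI.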

What was measured:
Assay in all cases: NCI tumour cell line growth inhibition, 48 h
A549 NSCLC = system: A549 NSCLC
HOP-92 NSCLC = system: HOP-92 NSCLC
OVCAR-4 ovarian = system: OVCAR-4 ovarian
OVCAR-5 ovarian = system: OVCAR-5 ovarian
RPMI-8226 leukemia = system: RPMI-8226 leukemia
SF-295 CNS = system: SF-295 CNS
SF-539 CNS = system: SF-539 CNS
SR leukemia = system: SR leukemia

SMILES | TGI (A549 NSCLC) | TGI (HOP-92 NSCLC) | TGI (OVCAR-4 ovarian) | GI50 (OVCAR-5 ovarian) | TGI (OVCAR-5 ovarian) | GI50 (RPMI-8226 leukemia) | TGI (RPMI-8226 leukemia) | GI50 (SF-295 CNS) | TGI (SF-295 CNS) | TGI (SF-539 CNS) | GI50 (SR leukemia) | TGI (SR leukemia) | GI50 (A549 NSCLC) | GI50 (SF-539 CNS) | GI50 (HOP-92 NSCLC) | GI50 (OVCAR-4 ovarian)
CN1CC[C@]2(c3cccc(O)c3)CC(=O)/C(=C/c3ccccc3)[C@H]1C2 | 11.1 µM | 7.92 µM | 11 µM | 4.34 µM | 16.1 µM | 2100 nM | > 22 µM | 4500 nM | 17 µM | 5.2 µM | 1350 nM | 5.9 µM |  |  |  | 
CCN(CC)CCOc1ccc(/C=C2\C[C@H]3[C@H]4CC=C5C[C@@H](O)CC[C@]5(C)[C@H]4CC[C@]3(C)[C@H]2O)cc1OC | 25 µM |  |  | 9.44 µM | 18.6 µM |  |  | 10400 nM | 25.4 µM | 9.82 µM |  |  | 10.7 µM | 1430 nM |  | 
O=C(NNc1ccc(F)cc1)C1CCC(CNS(=O)(=O)c2ccc(Cl)c(Cl)c2)CC1 (configuration not stated) | 4.93 µM | 37.5 µM | 47 µM | 7.7 µM | 25.2 µM | 3360 nM | 24.2 µM | 2160 nM | 45.5 µM | 39.1 µM | 17000 nM | > 50 µM | 0.842 µM | 9770 nM | 7350 nM | 9.02 µM
COc1cc2nc(-c3ccc(Cl)cc3)cc(OCCCN3CCCC3)c2cc1OC | 12.4 µM | 5.43 µM | 22.6 µM | 1.03 µM | 13.7 µM |  |  | 1220 nM | 2.94 µM | 8.07 µM | 251 nM | 1.38 µM | 1.52 µM | 2440 nM | 850 nM | 3 µM
CN(C)CCC=C1c2ccccc2C(C)(C)c2ccccc21 | 32 µM | 14.7 µM | 26.6 µM | 15.9 µM | 31.4 µM | 2000 nM | 5.93 µM | 3920 nM | 19.7 µM | 22.2 µM |  |  | 15.8 µM | 10400 nM | 1880 nM | 12.5 µM
CCOC(=O)c1ccc2c(c1)nc(/C=C/c1ccc(Cl)cc1)n2-c1cc(C(C)(C)C)[nH]n1 | 19.7 µM |  | 7.31 µM | 18.5 µM | > 100 µM | 8140 nM | > 100 µM | 2630 nM | 8.82 µM | 5.09 µM |  |  | 3.64 µM | 2090 nM |  | 1.9 µM
COc1ccc(-c2nc(Nc3ccc(-c4nc5ccccc5[nH]4)cc3)nc(N3CCOCC3)n2)cc1 | > 100 µM | 3.74 µM | 13 µM | 2.7 µM | 8.9 µM | 1930 nM | 6.54 µM | 1590 nM | 4.7 µM | 3.72 µM |  |  | 3.24 µM | 1630 nM | 1800 nM | 3.13 µM
O=C(N=Nc1c(O)[nH]c2ccccc12)c1oc2ccccc2c1CN1CCN(c2ccccc2)CC1 | 8.21 µM | 5.78 µM | 1.46 µM | 2.54 µM | 11.6 µM |  |  | 5110 nM | 12.5 µM | 8.53 µM |  |  | 1.54 µM | 2500 nM | 1250 nM | 0.725 µM
COc1ccc2c(c1)C1OCCNC1CC2 (configuration not stated) | > 100 µM |  |  |  | > 100 µM |  | > 100 µM |  | > 100 µM | > 100 µM |  | > 100 µM |  |  |  | 
NCCCCCCCCCCCn1c2c(c3ccccc3c1=O)C(=O)c1ccccc1-2 | 74.7 µM | 7.05 µM | 8.63 µM | 2.48 µM | 9.01 µM |  |  | 2700 nM | 7.9 µM | 40.2 µM |  |  | 20 µM | 20600 nM | 2650 nM | 2.86 µM
C[N+](C)(CCCCCC[N+](C)(C)CCCN1C(=O)c2cc3ccccc3cc2C1=O)CCCN1C(=O)c2cc3ccccc3cc2C1=O | > 37.5 µM | > 37.5 µM | > 37.5 µM | > 37.5 µM | > 37.5 µM | > 37500 nM | > 37.5 µM | > 37500 nM | > 37.5 µM | > 37.5 µM |  |  | > 37.5 µM | > 37500 nM | > 37500 nM | > 37.5 µM
O=C1C(=O)c2ccccc2C(O)=C1CCCc1ccc(C2CCCC2)cc1 | 32.9 µM |  | 39.7 µM | 11 µM | 23.6 µM | 2660 nM | 6.94 µM | 3400 nM | 11 µM | 25.9 µM | 3390 nM | 12.9 µM | 3.36 µM | 5570 nM |  | 5.92 µM
CO[C@]12C=C/C(=C(/C(=O)OCc3cccnc3)C(=O)CCCCCCCC[C@@]3(OC)C=C/C(=C(/C(=O)OCc4cccnc4)C(=O)CCCCCCCC1)O3)O2 | 9.2 µM | 4.83 µM |  | 1.99 µM | 15.5 µM | 1090 nM | 5.87 µM |  |  | 7.91 µM | 1120 nM | > 50 µM | 1.65 µM | 1640 nM | 1860 nM | 
O=c1c2c(c3ccccc3n1-c1ccccc1)NC(=S)NC2c1ccc(Cl)cc1 (configuration not stated) | > 100 µM | 19 µM | > 100 µM | 8.8 µM | 86.4 µM |  |  | 1340 nM | 7.16 µM | 42.6 µM | 4760 nM | > 100 µM | 4.25 µM | 2370 nM | 2380 nM | 5.66 µM
O=[N+]([O-])c1ccc(Sc2nc(Cl)nc(NC3CCCC3)n2)cc1 |  | > 10 µM | > 10 µM | > 10 µM | > 10 µM | > 10000 nM | > 10 µM | > 10000 nM | > 10 µM | > 10 µM | > 10000 nM | > 10 µM |  | > 10000 nM | > 10000 nM | > 10 µM
Nc1ccccc1NC(=O)c1ccc(CN2CCC/C(=C\c3ccccn3)C2=O)cc1 | > 100 µM | 2.98 µM | > 100 µM |  |  | 686 nM | 5.66 µM | 1920 nM | 11.7 µM | > 100 µM | 470 nM | > 100 µM | 2.41 µM | 1580 nM | 143 nM | 2.66 µM
Cn1cc(-c2csc(-c3cn(CCCCN4CCCCC4)c4ccc(F)cc34)n2)c2cccnc21 | 3.04 µM | 27.8 µM | 2.94 µM | 2.86 µM | 11.3 µM |  |  | 1630 nM | 3.05 µM |  |  |  | 1.67 µM |  | 4810 nM | 1.59 µM
C1COCCOCCOCCOCCOCCO1.[Cl][Sn]([Cl])([c]1ccccc1)[c]1ccccc1 | 34.4 µM | 4.52 µM | 26.3 µM | 17.8 µM | 31.6 µM | 2020 nM | 6.15 µM | 16100 nM | 30 µM | 8.53 µM |  |  | 20.2 µM | 2940 nM | 2260 nM | 12.3 µM
CC1(C)CCCC(C)(C2CCC3(C)C2C(O)CC2C4(C)CCC(O)C(C)(C)C4C(O)CC23C)O1 (configuration not stated) | 24.4 µM | 30.6 µM | 26 µM |  | 38.4 µM |  |  |  | 24.7 µM | 28.1 µM |  | 86.1 µM |  |  |  | 
CCCCCCCCCCCCCCCC(=O)N[C@H](/C=C/[C@H](O)CCCCCCCCCCCCC)CO | > 100 µM | > 100 µM | > 100 µM | > 100 µM | > 100 µM | 884 nM | > 100 µM | > 100000 nM | > 100 µM | > 100 µM |  |  | > 100 µM | > 100000 nM | > 100000 nM | > 100 µM
COc1cc(/C=C2\Oc3cc(OCCCN4CCCC4)ccc3C2=O)cc(OC)c1 | 14.8 µM | 16.8 µM | 19.8 µM | 12.5 µM | 25.4 µM |  |  | 2880 nM | 10.6 µM | 3.12 µM | 1820 nM | 5.04 µM | 3.44 µM | 1660 nM | 3200 nM | 7.16 µM
COC(=O)c1ccc2c(c1)C(=O)c1c-2n(C)c(=O)c2cc(OC)c(OC)cc12 | > 50 µM | > 50 µM | > 50 µM | > 50 µM | > 50 µM | > 50000 nM | > 50 µM | 34000 nM | > 50 µM | > 50 µM |  |  | > 50 µM | > 50000 nM | 18800 nM | > 50 µM
CCCCCc1cc[n+](CC(=O)c2ccc([N+](=O)[O-])cc2)cc1 | 15 µM | 9.84 µM | 13.1 µM | 22 µM | 97.9 µM | 3180 nM | 17 µM | 6520 nM | 24.3 µM | 72.1 µM |  |  | 4.39 µM | 20300 nM | 2200 nM | 2.53 µM
Cc1cccc2nc3cccc(C(=O)NCCNCCNCCNC(=O)c4cccc5nc6cccc(C)c6nc45)c3nc12 |  | 0.519 µM | 5.09 µM | 0.12 µM | 11.1 µM | < 10 nM | 0.769 µM | < 10 nM | 1.11 µM | 4.06 µM | < 10 nM | 1.22 µM |  | < 25.4 nM | < 31.7 nM | 0.168 µM
CNc1cc2nc3cc(NC)c(C)cc3cc2cc1C |  | 19.1 µM | 3.26 µM | 2.75 µM | 20.2 µM | 1040 nM | 5.12 µM | 1410 nM | 13.2 µM | 16.2 µM | 530 nM | > 100 µM |  | 2060 nM | 1760 nM | 1.03 µM
